Patent publication US20220169628A1 (University of Florida Research Foundation, Incorporated, priority 2019, published 2022)

Columns and labels:
RS4 cells = assay: Cell viability assay, MTS, 72 h, RS4;11; assay type: cell-based; conditions: Homo sapiens
Experimental: (§1) Cancer cells from different tissue origins including acute lymphoblastic leukemia (MOLT4 and RS4; 11), small cell lung cancer (NCI-H146 or simply H146), and multiple myeloma (EJM and H929) were incubated with increasing concentrations of Examples 1-21 or ABT-263 for 72 h. Cell viability was measured by tetrazolium-based MTS assay. 5×10^4 to 1×10^5 suspension cells or 3×10^3 to 5×10^3 adherent cells were seeded and treated in 96-well plates for 72 h. The EC50 values of individual agents were calculated with GraphPad Prism.

MOLT-4 cells = assay: Cell viability assay, MTS, 72 h, MOLT-4; assay type: cell-based; conditions: Homo sapiens; MOLT-4 cells, 72 h, MTS
Experimental: as §1

| IC50 (RS4 cells) | IC50 (MOLT-4 cells) | SMILES |
| --- | --- | --- |
| 19.4 nM | 74 nM | Cc1ncsc1-c1ccc([C@H](C)NC(=O)[C@@H]2C[C@@H](O)CN2C(=O)[C@@H](NC(=O)CCCCCCCCCC(=O)NCC2(C)CCC(c3ccc(Cl)cc3)=C(CN3CCN(c4ccc(C(=O)NS(=O)(=O)c5ccc(N[C@H](CCN6CCOCC6)CSc6ccccc6)c(S(=O)(=O)C(F)(F)F)c5)cc4)CC3)C2)C(C)(C)C)cc1 (stereo partly drawn) [Compound 54, N^1-((4′-chloro-4-methyl-6-((4-(4-(((4-(((R)-4-morpholino-1-(phenylthio)butan-2-yl)amino)-3-((trifluoromethyl)sulfonyl)phenyl)sulfonyl)carbamoyl)phenyl)piperazin-1-yl)methyl)-2,3,4,5-tetrahydro-[1,1′-biphenyl]-4-yl)methyl)-N^11—((S)-1-((2S,4R)-4-hydroxy-2-(((S)-1-(4-(4-methylthiazol-5-yl)phenyl)ethyl)carbamoyl)pyrrolidin-1-yl)-3,3-dimethyl-1-oxobutan-2-yl)undecanediamide] |
| 96 nM | 111 nM | Cc1ncsc1-c1ccc([C@H](C)NC(=O)[C@@H]2C[C@@H](O)CN2C(=O)[C@@H](NC(=O)CCCCCCCCCCC(=O)NCC2(C)CCC(c3ccc(Cl)cc3)=C(CN3CCN(c4ccc(C(=O)NS(=O)(=O)c5ccc(N[C@H](CCN6CCOCC6)CSc6ccccc6)c(S(=O)(=O)C(F)(F)F)c5)cc4)CC3)C2)C(C)(C)C)cc1 (stereo partly drawn) [Compound 55, N^1-((4′-chloro-4-methyl-6-((4-(4-(((4-(((R)-4-morpholino-1-(phenylthio)butan-2-yl)amino)-3-((trifluoromethyl)sulfonyl)phenyl)sulfonyl)carbamoyl)phenyl)piperazin-1-yl)methyl)-2,3,4,5-tetrahydro-[1,1′-biphenyl]-4-yl)methyl)-N^2—((S)-1-((2S,4R)-4-hydroxy-2-(((S)-1-(4-(4-methylthiazol-5-yl)phenyl)ethyl)carbamoyl)pyrrolidin-1-yl)-3,3-dimethyl-1-oxobutan-2-yl)dodecanediamide] |
| 303 nM | 340 nM | Cc1ncsc1-c1ccc([C@H](C)NC(=O)[C@@H]2C[C@@H](O)CN2C(=O)[C@@H](NC(=O)CCCCC(=O)NCC2(C)CCC(c3ccc(Cl)cc3)=C(CN3CCN(c4ccc(C(=O)NS(=O)(=O)c5ccc(N[C@H](CCN6CCOCC6)CSc6ccccc6)c(S(=O)(=O)C(F)(F)F)c5)cc4)CC3)C2)C(C)(C)C)cc1 (stereo partly drawn) [Compound 49, N′-((4′-chloro-4-methyl-6-((4-(4-(((4-(((R)-4-morpholino-1-(phenylthio)butan-2-yl)amino)-3-((trifluoromethyl)sulfonyl)phenyl)sulfonyl)carbamoyl)phenyl)piperazin-1-yl)methyl)-2,3,4,5-tetrahydro-[1,1′-biphenyl]-4-yl)methyl)-N^6—((S)-1-((2S,4R)-4-hydroxy-2-(((S)-1-(4-(4-methylthiazol-5-yl)phenyl)ethyl)carbamoyl)pyrrolidin-1-yl)-3,3-dimethyl-1-oxobutan-2-yl)adipamide] |
| 1750 nM | 342 nM | Cc1ncsc1-c1ccc([C@H](C)NC(=O)[C@@H]2C[C@@H](O)CN2C(=O)[C@@H](NC(=O)COCCOCCOCCOCCOC(=O)N2CCC(c3ccc(Cl)cc3)=C(CN3CCN(c4ccc(C(=O)NS(=O)(=O)c5ccc(N[C@H](CCN6CCOCC6)CSc6ccccc6)c(S(=O)(=O)C(F)(F)F)c5)cc4)CC3)C2)C(C)(C)C)cc1 [Compound 36, (S)-16-((2S,4R)-4-hydroxy-2-(((S)-1-(4-(4-methylthiazol-5-yl)phenyl)ethyl)carbamoyl)pyrrolidine-1-carbonyl)-17,17-dimethyl-14-oxo-3,6,9,12-tetraoxa-15-azaoctadecyl 4-(4-chlorophenyl)-5-((4-(4-(((4-(((R)-4-morpholino-1-(phenylthio)butan-2-yl)amino)-3-((trifluoromethyl)sulfonyl)phenyl)sulfonyl)carbamoyl)phenyl)piperazin-1-yl)methyl)-3,6-dihydropyridine-1(2H)-carboxylate] |
| 33 nM | 36 nM | CC1(CNC(=O)CCCCCNc2cccc3c2C(=O)N(C2CCC(=O)NC2=O)C3=O)CCC(c2ccc(Cl)cc2)=C(CN2CCN(c3ccc(C(=O)NS(=O)(=O)c4ccc(N[C@H](CCN5CCOCC5)CSc5ccccc5)c(S(=O)(=O)C(F)(F)F)c4)cc3)CC2)C1 (stereo partly drawn) [Compound 62, 4-(4-((4′-chloro-4-((6-((2-(2,6-dioxopiperidin-3-yl)-1,3-dioxoisoindolin-4-yl)amino)hexanamido)methyl)-4-methyl-3,4,5,6-tetrahydro-[1,1′-biphenyl]-2-yl)methyl)piperazin-1-yl)-N-((4-(((R)-4-morpholino-1-(phenylthio)butan-2-yl)amino)-3-((trifluoromethyl)sulfonyl)phenyl)sulfonyl)benzamide] |
| 410 nM | 333 nM | Cc1ncsc1-c1ccc([C@H](C)NC(=O)[C@@H]2C[C@@H](O)CN2C(=O)[C@@H](NC(=O)CCCCCCCCCCCC(=O)NCC2(C)CCC(c3ccc(Cl)cc3)=C(CN3CCN(c4ccc(C(=O)NS(=O)(=O)c5ccc(N[C@H](CCN6CCOCC6)CSc6ccccc6)c(S(=O)(=O)C(F)(F)F)c5)cc4)CC3)C2)C(C)(C)C)cc1 (stereo partly drawn) [Compound 56, N^1-((4′-chloro-4-methyl-6-((4-(4-(((4-(((R)-4-morpholino-1-(phenylthio)butan-2-yl)amino)-3-((trifluoromethyl)sulfonyl)phenyl)sulfonyl)carbamoyl)phenyl)piperazin-1-yl)methyl)-2,3,4,5-tetrahydro-[1,1′-biphenyl]-4-yl)methyl)-N^13—((S)-1-((2S,4R)-4-hydroxy-2-(((S)-1-(4-(4-methylthiazol-5-yl)phenyl)ethyl)carbamoyl)pyrrolidin-1-yl)-3,3-dimethyl-1-oxobutan-2-yl)tridecanediamide] |
| 758 nM | 1410 nM | Cc1ncsc1-c1ccc([C@H](C)NC(=O)[C@@H]2C[C@@H](O)CN2C(=O)[C@@H](NC(=O)COCCOCCOCCOCCOCC(=O)NCC2(C)CCC(c3ccc(Cl)cc3)=C(CN3CCN(c4ccc(C(=O)NS(=O)(=O)c5ccc(N[C@H](CCN6CCOCC6)CSc6ccccc6)c(S(=O)(=O)C(F)(F)F)c5)cc4)CC3)C2)C(C)(C)C)cc1 (stereo partly drawn) [Compound 60, N^1-((4′-chloro-4-methyl-6-((4-(4-(((4-(((R)-4-morpholino-1-(phenylthio)butan-2-yl)amino)-3-((trifluoromethyl)sulfonyl)phenyl)sulfonyl)carbamoyl)phenyl)piperazin-1-yl)methyl)-2,3,4,5-tetrahydro-[1,1′-biphenyl]-4-yl)methyl)-N^17—((S)-1-((2S,4R)-4-hydroxy-2-(((S)-1-(4-(4-methylthiazol-5-yl)phenyl)ethyl)carbamoyl)pyrrolidin-1-yl)-3,3-dimethyl-1-oxobutan-2-yl)-3,6,9,12,15-pentaoxaheptadecanediamide] |
| 99 nM | 187 nM | Cc1ncsc1-c1ccc([C@H](C)NC(=O)[C@@H]2C[C@@H](O)CN2C(=O)[C@@H](NC(=O)CCCCCC(=O)NCC2(C)CCC(c3ccc(Cl)cc3)=C(CN3CCN(c4ccc(C(=O)NS(=O)(=O)c5ccc(N[C@H](CCN6CCOCC6)CSc6ccccc6)c(S(=O)(=O)C(F)(F)F)c5)cc4)CC3)C2)C(C)(C)C)cc1 (stereo partly drawn) [Compound 50, N^1-((4′-chloro-4-methyl-6-((4-(4-(((4-(((R)-4-morpholino-1-(phenylthio)butan-2-yl)amino)-3-((trifluoromethyl)sulfonyl)phenyl)sulfonyl)carbamoyl)phenyl)piperazin-1-yl)methyl)-2,3,4,5-tetrahydro-[1,1′-biphenyl]-4-yl)methyl)-N^7—((S)-1-((2S,4R)-4-hydroxy-2-(((S)-1-(4-(4-methylthiazol-5-yl)phenyl)ethyl)carbamoyl)pyrrolidin-1-yl)-3,3-dimethyl-1-oxobutan-2-yl)heptanediamide] |
| 47 nM | 142 nM | Cc1ncsc1-c1ccc([C@H](C)NC(=O)[C@@H]2C[C@@H](O)CN2C(=O)[C@@H](NC(=O)CCCCCCC(=O)NCC2(C)CCC(c3ccc(Cl)cc3)=C(CN3CCN(c4ccc(C(=O)NS(=O)(=O)c5ccc(N[C@H](CCN6CCOCC6)CSc6ccccc6)c(S(=O)(=O)C(F)(F)F)c5)cc4)CC3)C2)C(C)(C)C)cc1 (stereo partly drawn) [Compound 51, N^1-((4′-chloro-4-methyl-6-((4-(4-(((4-(((R)-4-morpholino-1-(phenylthio)butan-2-yl)amino)-3-((trifluoromethyl)sulfonyl)phenyl)sulfonyl)carbamoyl)phenyl)piperazin-1-yl)methyl)-2,3,4,5-tetrahydro-[1,1′-biphenyl]-4-yl)methyl)-N^8—((S)-1-((2S,4R)-4-hydroxy-2-(((S)-1-(4-(4-methylthiazol-5-yl)phenyl)ethyl)carbamoyl)pyrrolidin-1-yl)-3,3-dimethyl-1-oxobutan-2-yl)octanediamide] |
| 43 nM | 124 nM | Cc1ncsc1-c1ccc([C@H](C)NC(=O)[C@@H]2C[C@@H](O)CN2C(=O)[C@@H](NC(=O)CCCCCCCC(=O)NCC2(C)CCC(c3ccc(Cl)cc3)=C(CN3CCN(c4ccc(C(=O)NS(=O)(=O)c5ccc(N[C@H](CCN6CCOCC6)CSc6ccccc6)c(S(=O)(=O)C(F)(F)F)c5)cc4)CC3)C2)C(C)(C)C)cc1 (stereo partly drawn) [Compound 52, N^1-((4′-chloro-4-methyl-6-((4-(4-(((4-(((R)-4-morpholino-1-(phenylthio)butan-2-yl)amino)-3-((trifluoromethyl)sulfonyl)phenyl)sulfonyl)carbamoyl)phenyl)piperazin-1-yl)methyl)-2,3,4,5-tetrahydro-[1,1′-biphenyl]-4-yl)methyl)-N^9—((S)-1-((2S,4R)-4-hydroxy-2-(((S)-1-(4-(4-methylthiazol-5-yl)phenyl)ethyl)carbamoyl)pyrrolidin-1-yl)-3,3-dimethyl-1-oxobutan-2-yl)nonanediamide] |
